Test results published in patent publication US20260317314A1, “NITROGEN-CONTAINING HETEROCYCLIC COMPOUND AND USE THEREOF” (JIANGSU DEYUAN PHARMACEUTICAL CO.,LTD., priority 2023, published 2026).

Legend:
MDR1-MDCKII cells = test: Permeability test in MDR1-MDCKII monolayer cell model; format: in vitro ADME; details: 2 μM, pH 7.40, 2.5 hours, 37±1° C.
Description: (§1) Experimental objective: The permeability and efflux ratio of the compound of the present disclosure were determined using the MDR1-MDCKII monolayer cell model to assess its membrane permeability and potential for P-gp-mediated efflux transport.
(§2) Experimental protocol: MDR1-MDCKII cells (obtained from the Netherlands Cancer Institute) were seeded in 96-well plates (obtained from Corning) at a cell density of 3.33×10^5 cells/mL and cultured for 4 to 7 days to form confluent cell monolayers. Hank's balanced salt solution containing 10 mM HEPES (pH 7.40) was used as the transport buffer. The test compound was evaluated for bidirectional transport at a concentration of 2 μM, with the DMSO concentration in the incubation system maintained below 1%. After adding the samples, the cell plate was incubated at 37±1° C., 5% CO2, and saturated humidity for 2.5 hours. All samples were quantitatively analyzed using the LC-MS/MS method. The apparent permeability coefficient (Papp, cm/s) and efflux ratio (ER) were calculated using the following formula. Apparent permeability coefficient (Papp, cm/s) was calculated using the following formula: Papp=(dCr/dt)×Vr/(A×C0). Herein, dCr/dt represents the cumulative concentration of the compound at the receiving end per unit time (μM/s); Vr is the volume of the solution at the receiving end (with solution volumes at the apical and basolateral ends being 0.075 mL and 0.250 mL, respectively); A is the relative surface area of the cell monolayer (0.143 cm^2); C0 is the initial concentration of the test substance at the dosing end (μM) or the peak area ratio of the reference substance. The efflux ratio was calculated using the following formula: ER=Papp(BA)/Papp(AB).

plasma protein [1] = test: Plasma protein binding rate test, cynomolgus monkey (equilibrium dialysis); format: in vitro ADME; details: 37° C., 4 hours
Excerpt: (§3) The sample was thoroughly mixed.

plasma protein [2] = test: Plasma protein binding rate test, human (equilibrium dialysis); format: in vitro ADME; details: 37° C., 4 hours
Excerpt: as §3

CYP2C9 = target: T1, CYP2C9 (Homo sapiens, UniProt P11712); test: Human liver microsome CYP inhibition assay, CYP2C9; format: in vitro ADME; details: role: inhibitor; human liver microsomes, probe substrate; read-out: CYP2C9 half maximal inhibitory concentration IC50
T1 construct: Mixed human liver microsomes (HLM) were purchased from Corning Inc; tissue Corning Inc; host or cells: mixed human liver microsomes (HLM)
Description: (§4) Experimental objective: To evaluate the inhibitory activity of the test substance on human liver microsomal cytochrome P450 isoenzymes (CYP1A2, CYP2C9, CYP2C19, CYP2D6, CYP3A4) using a 5-in-1 probe substrate for CYP isoenzymes.
(§5) Mixed human liver microsomes (HLM) were purchased from Corning Inc. (Steuben, New York, USA) and stored at temperatures below −70° C. prior to use.
(§6) The working solution of the test substance, which had been diluted to a series of concentrations, was added to an incubation system containing human liver microsomes, probe substrates, and auxiliary factors of the circulatory system. A control containing solvent but no test substance served as an enzyme activity control (100%). The concentration of metabolites produced from probe substrates in the samples was determined using Liquid Chromatography-Tandem Mass Spectrometry (LC-MS/MS) method. Non-linear regression analysis of the average percentage activity of the test substance against its concentration was conducted using SigmaPlot (V.11). The IC50 values were calculated using a three-parameter or four-parameter inverse log equation.

CYP3A4 = target: T2, CYP3A4 (Homo sapiens, UniProt P08684); test: Human liver microsome CYP inhibition assay, CYP3A4; format: in vitro ADME; details: role: inhibitor; human liver microsomes, probe substrate; read-out: CYP3A4 half maximal inhibitory concentration IC50
T2 construct: Mixed human liver microsomes (HLM) were purchased from Corning Inc; tissue Corning Inc; host or cells: mixed human liver microsomes (HLM)
Description: as §4, §5, §6

[3] = In vitro liver microsome metabolic stability study; format: in vitro ADME; details: human liver microsomes 0.5 mg/mL, compound 1 μM, 37° C., up to 60 minutes; read-out: Intrinsic hepatic clearance CLint(liver)
Description: Stock solution: 10 mM in DMSO.
Only 54 μL of microsomal working solution, 6 μL of NADPH regeneration system working solution, and 180 μL of stop solution were added to the blank plate.
LC-MS/MS analysis was performed.

CYP2D6 = target: T3, CYP2D6 (Homo sapiens, UniProt P10635); test: Human liver microsome CYP inhibition assay, CYP2D6; format: in vitro ADME; details: role: inhibitor; human liver microsomes, probe substrate; read-out: CYP2D6 half maximal inhibitory concentration IC50
T3 construct: Mixed human liver microsomes (HLM) were purchased from Corning Inc; tissue Corning Inc; host or cells: mixed human liver microsomes (HLM)
Description: as §4, §5, §6

[4] = Permeability test in MDR1-MDCKII monolayer cell model; format: in vitro ADME; details: dog
Description: as §1, §2

[5] = Plasma protein binding rate test, cynomolgus monkey (equilibrium dialysis); format: in vitro ADME; details: 37° C., read-out: Plasma protein binding rate (%) in cynomolgus monkeys (converted)
Excerpt: as §3

CYP2C19 = target: T4, CYP2C19 (Homo sapiens, UniProt P33261); test: Human liver microsome CYP inhibition assay, CYP2C19; format: in vitro ADME; details: role: inhibitor; human liver microsomes, probe substrate; read-out: CYP2C19 half maximal inhibitory concentration IC50
T4 construct: Mixed human liver microsomes (HLM) were purchased from Corning Inc; tissue Corning Inc; host or cells: mixed human liver microsomes (HLM)
Description: as §4, §5, §6

[6] = Plasma protein binding rate test, human (equilibrium dialysis); format: in vitro ADME; details: 37° C.
Excerpt: as §3

[7] = In vivo pharmacokinetics study in rats; set-up: species or system SD rat; details: rat, plasma, male SD rats, oral 2 mg/kg
CYP1A2 = target: T5, CYP1A2 (Homo sapiens, UniProt P05177); test: Human liver microsome CYP inhibition assay, CYP1A2; format: in vitro ADME; details: role: inhibitor; human liver microsomes, probe substrate; read-out: CYP1A2 half maximal inhibitory concentration IC50
T5 construct: Mixed human liver microsomes (HLM) were purchased from Corning Inc; tissue Corning Inc; host or cells: mixed human liver microsomes (HLM)
T5 sequence (P05177 1-516): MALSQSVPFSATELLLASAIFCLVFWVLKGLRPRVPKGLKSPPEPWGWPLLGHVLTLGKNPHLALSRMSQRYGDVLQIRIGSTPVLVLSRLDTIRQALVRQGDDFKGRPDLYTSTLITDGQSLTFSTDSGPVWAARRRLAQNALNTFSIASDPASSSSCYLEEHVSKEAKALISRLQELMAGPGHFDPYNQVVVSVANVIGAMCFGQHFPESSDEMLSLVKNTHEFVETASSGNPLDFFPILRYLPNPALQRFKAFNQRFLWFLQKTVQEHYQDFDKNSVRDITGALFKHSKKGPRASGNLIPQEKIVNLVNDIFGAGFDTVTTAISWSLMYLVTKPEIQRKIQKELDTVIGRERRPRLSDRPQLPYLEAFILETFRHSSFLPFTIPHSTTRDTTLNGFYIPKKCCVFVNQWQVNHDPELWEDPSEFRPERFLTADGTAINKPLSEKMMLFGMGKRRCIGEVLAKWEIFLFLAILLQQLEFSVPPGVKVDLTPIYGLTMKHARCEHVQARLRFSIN
Description: as §4, §5, §6

T3 sequence (P10635 whole entry): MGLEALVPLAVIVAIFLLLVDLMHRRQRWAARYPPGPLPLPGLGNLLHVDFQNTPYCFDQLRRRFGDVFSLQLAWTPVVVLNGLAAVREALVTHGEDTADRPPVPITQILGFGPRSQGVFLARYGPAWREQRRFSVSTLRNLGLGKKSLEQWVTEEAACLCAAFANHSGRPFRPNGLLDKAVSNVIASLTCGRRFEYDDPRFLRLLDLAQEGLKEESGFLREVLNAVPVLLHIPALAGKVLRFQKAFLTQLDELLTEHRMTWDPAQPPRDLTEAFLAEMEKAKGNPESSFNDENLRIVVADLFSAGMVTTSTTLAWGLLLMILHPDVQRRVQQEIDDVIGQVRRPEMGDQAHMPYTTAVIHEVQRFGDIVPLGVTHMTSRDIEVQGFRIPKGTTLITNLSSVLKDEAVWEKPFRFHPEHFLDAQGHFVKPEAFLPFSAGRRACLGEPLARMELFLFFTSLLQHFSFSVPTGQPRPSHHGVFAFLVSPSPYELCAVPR
T4 sequence (P33261 whole entry): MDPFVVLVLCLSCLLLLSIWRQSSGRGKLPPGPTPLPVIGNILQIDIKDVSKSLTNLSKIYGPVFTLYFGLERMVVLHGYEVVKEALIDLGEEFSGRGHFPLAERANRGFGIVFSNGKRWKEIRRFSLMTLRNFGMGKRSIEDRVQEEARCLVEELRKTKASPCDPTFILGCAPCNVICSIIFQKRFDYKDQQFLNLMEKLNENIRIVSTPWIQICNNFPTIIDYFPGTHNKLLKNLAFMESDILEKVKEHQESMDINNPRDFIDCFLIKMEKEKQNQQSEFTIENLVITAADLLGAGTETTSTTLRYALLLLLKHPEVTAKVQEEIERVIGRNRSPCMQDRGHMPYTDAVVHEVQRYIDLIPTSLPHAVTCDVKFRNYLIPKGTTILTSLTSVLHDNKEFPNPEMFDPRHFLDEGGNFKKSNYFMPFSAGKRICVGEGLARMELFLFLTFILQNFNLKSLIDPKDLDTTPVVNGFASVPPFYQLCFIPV
T1 sequence (P11712 whole entry): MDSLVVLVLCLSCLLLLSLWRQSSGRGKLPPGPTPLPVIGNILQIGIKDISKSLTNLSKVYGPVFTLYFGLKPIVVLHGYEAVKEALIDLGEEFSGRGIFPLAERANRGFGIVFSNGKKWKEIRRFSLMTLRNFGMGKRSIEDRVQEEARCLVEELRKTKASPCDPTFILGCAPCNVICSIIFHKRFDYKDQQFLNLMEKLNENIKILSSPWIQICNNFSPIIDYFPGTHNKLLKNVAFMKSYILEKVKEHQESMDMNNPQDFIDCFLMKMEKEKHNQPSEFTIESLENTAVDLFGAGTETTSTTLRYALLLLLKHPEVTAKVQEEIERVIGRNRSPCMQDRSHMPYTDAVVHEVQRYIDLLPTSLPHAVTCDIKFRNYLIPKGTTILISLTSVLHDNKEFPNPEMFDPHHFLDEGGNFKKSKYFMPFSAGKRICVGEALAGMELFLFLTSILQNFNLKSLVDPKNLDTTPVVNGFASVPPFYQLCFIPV
T2 sequence (P08684 whole entry): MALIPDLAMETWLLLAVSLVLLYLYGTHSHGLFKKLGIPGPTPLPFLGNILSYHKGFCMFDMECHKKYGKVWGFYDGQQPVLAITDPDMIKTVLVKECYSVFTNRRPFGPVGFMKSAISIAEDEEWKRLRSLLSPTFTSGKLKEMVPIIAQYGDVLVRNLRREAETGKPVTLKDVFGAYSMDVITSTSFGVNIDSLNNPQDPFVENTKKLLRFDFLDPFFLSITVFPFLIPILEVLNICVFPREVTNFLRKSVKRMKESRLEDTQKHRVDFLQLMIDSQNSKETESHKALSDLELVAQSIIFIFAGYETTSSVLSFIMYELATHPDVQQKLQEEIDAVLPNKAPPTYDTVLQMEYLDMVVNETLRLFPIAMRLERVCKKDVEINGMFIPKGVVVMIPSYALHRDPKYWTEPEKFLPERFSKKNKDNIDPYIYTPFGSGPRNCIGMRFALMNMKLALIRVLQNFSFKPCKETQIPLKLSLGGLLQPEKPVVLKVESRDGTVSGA

With CCC(=O)N[C@H]1CCOc2c(-c3ccc4c(ccc(=O)n4C)c3)cncc21 (single isomer, unassigned) [Compound 044] the “Apparent permeability coefficient (Papp (AB))” value (MDR1-MDCKII cells) was 11.0 10^-6 cm/s, the “Plasma protein binding rate (%) in cynomolgus monkeys” value (plasma protein [1]) was 66.4% and the “Human plasma protein binding rate (%)” value (plasma protein [2]) was 70.5%.

CCC(=O)NC1CCOc2c(-c3cc4c(s3)N(C)C(=O)CC4)cncc21 (single isomer, unassigned) [Compound 046] showed an IC50 (CYP2C9) of over 50 µM, an IC50 (CYP3A4) of over 50 µM and a CLint scaled at 1 µM [3] of under 8.6 mL/min/kg. For the same molecule, the IC50 (CYP2D6) was over 50 µM, the efflux ratio at 2.5 h, 2 µM ([4]; MDCK-MDR1, pH 7.4, ER=Papp(BA)/Papp(AB)) was 1.17 and the Papp A→B at 2.5 h, 2 µM ([4]; MDCK-MDR1, pH 7.4, pH 7.40, 2.5 hours, 37±1° C., read-out: Apparent permeability coefficient (Papp (AB))) was 18 ×10⁻⁶ cm/s. It also gave a fraction unbound at 4 h [5] of 0.304, an IC50 (CYP2C19) of over 50 µM and a fraction unbound at 4 h [6] of 0.166. For the same molecule, the bioavailability [7] was 71%, the half-life [7] was 194 min and the Cmax [7] was 7.86 µM. It also gave an AUC(0-t) at 24 h ([7]; read-out: AUC0-24 h) of 36.6 µM·h and an IC50 (CYP1A2) of over 50 µM.
